{
  "source": "paper PMC6963541",
  "about": "“Synthesis and Biological Evaluation of Lipophilic Nucleoside Analogues as Inhibitors of Aminoacyl-tRNA Synthetases” (Antibiotics, 2019)",
  "key": {"E. coli IleRS [1]": {"target": "T1, E. coli IleRS (Escherichia coli, UniProt P00956)", "T1 construct": "gene ileS; purified recombinant E. coli IleRS", "T1 sequence (P00956 2-938)": "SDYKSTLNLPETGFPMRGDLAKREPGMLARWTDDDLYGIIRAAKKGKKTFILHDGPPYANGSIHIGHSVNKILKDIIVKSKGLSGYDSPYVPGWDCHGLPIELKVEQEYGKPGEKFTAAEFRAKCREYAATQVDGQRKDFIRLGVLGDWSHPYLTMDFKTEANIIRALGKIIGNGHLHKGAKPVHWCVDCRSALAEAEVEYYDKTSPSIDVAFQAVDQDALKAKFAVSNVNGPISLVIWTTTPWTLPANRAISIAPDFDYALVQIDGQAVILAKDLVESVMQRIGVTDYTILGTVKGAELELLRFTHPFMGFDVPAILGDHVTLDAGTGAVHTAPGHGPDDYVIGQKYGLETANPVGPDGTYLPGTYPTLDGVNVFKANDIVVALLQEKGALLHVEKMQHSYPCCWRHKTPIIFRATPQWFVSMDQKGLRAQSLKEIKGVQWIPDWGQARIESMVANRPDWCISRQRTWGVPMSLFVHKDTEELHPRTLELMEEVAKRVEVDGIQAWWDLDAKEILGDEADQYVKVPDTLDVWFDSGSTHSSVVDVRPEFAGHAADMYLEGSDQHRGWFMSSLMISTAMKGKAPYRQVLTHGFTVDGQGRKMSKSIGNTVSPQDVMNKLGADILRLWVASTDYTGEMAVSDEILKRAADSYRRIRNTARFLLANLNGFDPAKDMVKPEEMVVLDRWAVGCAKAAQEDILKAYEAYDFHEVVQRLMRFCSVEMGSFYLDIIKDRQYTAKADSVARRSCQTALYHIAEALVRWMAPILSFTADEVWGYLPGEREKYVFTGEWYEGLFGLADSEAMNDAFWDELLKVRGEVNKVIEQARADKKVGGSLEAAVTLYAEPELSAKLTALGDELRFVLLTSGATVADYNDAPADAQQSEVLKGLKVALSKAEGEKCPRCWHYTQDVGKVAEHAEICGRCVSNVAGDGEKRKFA", "assay": "radiolabel aminoacyl transfer assay ([…]-Ile to tRNA, TCA precipitation)", "type": "biochemical"}, "E. coli IleRS [2]": {"target": "T1, E. coli IleRS", "assay": "radiolabel aminoacyl transfer assay ([…]-Ile to tRNA, TCA precipitation)", "type": "biochemical", "conditions": "10 nM IleRS, 50 µM 14C-isoleucine, 2 mg/mL tRNA, 500 µM ATP, 10 mM MgCl2, pH 7.5, 37 °C, 10 min preincubation; dose-response curve not determined"}},
  "data": [
    {"compound": "CC[C@H](C)[C@H](N)C(=O)NS(=O)(=O)OC[C@H]1O[C@@H](n2cnc3c(NC)ncnc32)[C@H](O)[C@@H]1O", "note": "[6a, 5′-O-(N-L-isoleucyl)-sulfamoyl-N^6-methyl-adenosine]", "values": [
      {"measurement": "IC50", "setting": "E. coli IleRS [1]", "result": "13.9 ± 1", "unit": "nM"}
    ]},
    {"compound": "CCCCCCCCNc1ncnc2c1ncn2[C@@H]1O[C@H](COS(=O)(=O)NC(=O)[C@@H](N)[C@@H](C)CC)[C@@H](O)[C@H]1O", "note": "[6b, 5′-O-(N-L-isoleucyl)-sulfamoyl-N^6-octyl-adenosine]", "values": [
      {"measurement": "IC50", "setting": "E. coli IleRS [1]", "result": "42.8 ± 1", "unit": "nM"}
    ]},
    {"compound": "CCCCCCCCCCCCNc1ncnc2c1ncn2[C@@H]1O[C@H](COS(=O)(=O)NC(=O)[C@@H](N)[C@@H](C)CC)[C@@H](O)[C@H]1O", "note": "[6c, 5′-O-(N-L-isoleucyl)-sulfamoyl-N^6-dodecyl-adenosine]", "values": [
      {"measurement": "relative activity", "setting": "E. coli IleRS [2]", "result": "the dodecyl derivative 6c was active in submicromolar range"}
    ]},
    {"compound": "CCCCCCCCCCCCCCCCCCNc1ncnc2c1ncn2[C@@H]1O[C@H](COS(=O)(=O)NC(=O)[C@@H](N)[C@@H](C)CC)[C@@H](O)[C@H]1O", "note": "[6d, 5′-O-(N-L-isoleucyl)-sulfamoyl-N^6-octadecyl-adenosine]", "values": [
      {"measurement": "relative activity", "setting": "E. coli IleRS [2]", "result": "the octadecyl compound 6d was found to be active only in the micromolar range"}
    ]},
    {"compound": "CC[C@H](C)[C@H](N)C(=O)NS(=O)(=O)OC[C@H]1O[C@@H](n2cnc3c(Nc4ccccc4)ncnc32)[C@H](O)[C@@H]1O", "note": "[6e, 5′-O-(N-L-isoleucyl)-sulfamoyl-N^6-phenyl-adenosine]", "values": [
      {"measurement": "IC50", "setting": "E. coli IleRS [1]", "result": "10.5 ± 1", "unit": "nM"}
    ]},
    {"compound": "CC[C@H](C)[C@H](N)C(=O)NS(=O)(=O)OC[C@H]1O[C@@H](n2cnc3c(OC)ncnc32)[C@H](O)[C@@H]1O", "note": "[6f, 5′-O-(N-L-isoleucyl)-sulfamoyl-6-O-methyl-purine riboside]", "values": [
      {"measurement": "IC50", "setting": "E. coli IleRS [1]", "result": "4.9 ± 1.1", "unit": "nM"}
    ]}
  ]
}
